Laboratory results: ChEMBL document CHEMBL1133956, “Antagonists of the human CCR5 receptor as anti-HIV-1 agents. Part 3: a proposed pharmacophore model for 1-[N-(methyl)-N-(phenylsulfonyl)amino]-2-(phenyl)-4-[4-(substituted)piperidin-1-yl]butanes” (Bioorg Med Chem Lett, 2001)

Assays:
Type in all cases: cell-based
[1] = target: T1, C-C chemokine receptor type 5 (Homo sapiens, UniProt P51681); experiment: Inhibition of [125I]-MIP-1 alpha binding to human CCR5 receptor expressed in Chinese hamster ovary (CHO) cells
Target sequence in this assay (P51681 whole entry): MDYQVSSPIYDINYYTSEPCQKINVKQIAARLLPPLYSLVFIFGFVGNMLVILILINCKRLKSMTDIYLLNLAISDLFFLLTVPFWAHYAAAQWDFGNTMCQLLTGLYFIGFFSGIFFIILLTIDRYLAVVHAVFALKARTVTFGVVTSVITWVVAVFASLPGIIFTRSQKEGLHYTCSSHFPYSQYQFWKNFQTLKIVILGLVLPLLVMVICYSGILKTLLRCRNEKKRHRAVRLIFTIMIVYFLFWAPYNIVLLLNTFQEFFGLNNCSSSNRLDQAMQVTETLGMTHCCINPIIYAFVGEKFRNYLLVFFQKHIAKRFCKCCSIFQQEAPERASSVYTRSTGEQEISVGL

[2] = target: T1, C-C chemokine receptor type 5; experiment: Inhibition of [125I]-MIP-1 alpha binding to human CCR5 receptor expressed in Chinese hamster ovary (CHO) cells at 1000 nM
Target sequence in this assay (P51681 whole entry, looked up): as the sequence (P51681 whole entry) above

[3] = target: T1, C-C chemokine receptor type 5; experiment: Inhibition of [125I]-MIP-1 alpha binding to human CCR5 receptor expressed in Chinese hamster ovary (CHO) cells; completely inactive
Target sequence in this assay (P51681 whole entry): as above

[4] = target: T1, C-C chemokine receptor type 5; experiment: Inhibition of [125I]-MIP-1 alpha binding to human CCR5 receptor expressed in Chinese hamster ovary (CHO) cells at 1000 nM;
Target sequence in this assay (P51681 whole entry, looked up): as the sequence (P51681 whole entry) above

Structure (SMILES)	IC50 [1] [nM]	also measured
CN(C[C@@H](CCN1CCC2(CC1)CNC(=O)c1ccccc12)c1cccc(Cl)c1)S(=O)(=O)c1ccccc1	35	
CN(C[C@@H](CCN1CCC2(CC1)Cc1ccccc1O2)c1cccc(Cl)c1)S(=O)(=O)c1ccccc1	260	
CN(C[C@@H](CCN1CCC2(CC1)CC(=O)Nc1ccccc12)c1cccc(Cl)c1)S(=O)(=O)c1ccccc1	35	
CN(C[C@@H](CCN1CCCCC1)c1cccc(Cl)c1)S(=O)(=O)c1ccccc1		inhibition [2]: 27%
CN(C[C@@H](CCc1ccc(-c2ccccc2)cc1)c1ccc(Cl)c(Cl)c1)S(=O)(=O)c1ccccc1		IC50 [3]: > 10000 nM
CN(C[C@@H](CCN1CCC2(CC1)CN(S(C)(=O)=O)c1ccccc12)c1cccc(Cl)c1)S(=O)(=O)c1ccccc1		inhibition [2]: 12%
CN(C[C@@H](CCN1CCC2(CC1)NC(=O)c1ccccc12)c1cccc(Cl)c1)S(=O)(=O)c1ccccc1	45	
CN(C[C@@H](CCc1ccc(-c2ccccc2)cn1)c1ccc(Cl)c(Cl)c1)S(=O)(=O)c1ccccc1		IC50 [3]: > 10000 nM
CN(C[C@@H](CCN1CCC2(CC1)CC(=O)c1ccccc12)c1cccc(Cl)c1)S(=O)(=O)c1ccccc1	5	
CN1C(=O)c2ccccc2C12CCN(CC[C@H](CN(C)S(=O)(=O)c1ccccc1)c1cccc(Cl)c1)CC2	100	
CN(C[C@@H](CCNCCc1ccccc1)c1cccc(Cl)c1)S(=O)(=O)c1ccccc1		IC50 [3]: > 10000 nM
CN(C[C@@H](CCN1CCC2(CC1)CC(=O)c1ccccc1O2)c1cccc(Cl)c1)S(=O)(=O)c1ccccc1		inhibition [4]: 24%
CN(C[C@@H](CCN1CCC(C(C)(C)C)CC1)c1cccc(Cl)c1)S(=O)(=O)c1ccccc1		inhibition [2]: 40%
CN(CCc1ccccc1)CC[C@H](CN(C)S(=O)(=O)c1ccccc1)c1cccc(Cl)c1		IC50 [3]: > 10000 nM

Now from value to molecule, other results behind:

IC50 [1] [nM]	Structure (SMILES)	also measured
25	CN(C[C@@H](CCN1CCC(c2ccc(F)cc2)CC1)c1cccc(Cl)c1)S(=O)(=O)c1ccccc1	
250	CN(C[C@@H](CCN1CCC(Cc2ccccc2)CC1)c1cccc(Cl)c1)S(=O)(=O)c1ccccc1	
100	CN(C[C@@H](CCN1CCC2(CC1)CC(O)c1ccccc12)c1cccc(Cl)c1)S(=O)(=O)c1ccccc1 (some centres not stated)	
50	CN(C[C@@H](CCN1CCC2(CC1)CNc1ccccc12)c1cccc(Cl)c1)S(=O)(=O)c1ccccc1	
5	CN(C[C@@H](CCN1CCC(CCCc2ccccc2)CC1)c1cccc(Cl)c1)S(=O)(=O)c1ccccc1	
700	CN(C[C@@H](CCN1CCN(c2ccccc2)CC1)c1cccc(Cl)c1)S(=O)(=O)c1ccccc1	
120	CN(C[C@@H](CCN1CCC(c2cccc(C(F)(F)F)c2)CC1)c1cccc(Cl)c1)S(=O)(=O)c1ccccc1	
180	CN(C[C@@H](CCN1CCC2(CCc3ccccc32)CC1)c1cccc(Cl)c1)S(=O)(=O)c1ccccc1	
70	COc1ccccc1C1CCN(CC[C@H](CN(C)S(=O)(=O)c2ccccc2)c2cccc(Cl)c2)CC1	
2400	Cc1ccccc1N1CCN(CC[C@H](CN(C)S(=O)(=O)c2ccccc2)c2cccc(Cl)c2)CC1	
200	CN(C[C@@H](CCN1CCC(c2ccc(Cl)cc2)CC1)c1cccc(Cl)c1)S(=O)(=O)c1ccccc1	
400	Cc1ccccc1C1CCN(CC[C@H](CN(C)S(=O)(=O)c2ccccc2)c2cccc(Cl)c2)CC1	
65	CN(C[C@@H](CCN1CCC(CCc2ccccc2)CC1)c1cccc(Cl)c1)S(=O)(=O)c1ccccc1	
